Target: T1, human recombinant ROCK1 kinase domain (amino acid 2-543) (Homo sapiens, UniProt Q13464)
T1 construct: human recombinant ROCK1 kinase domain (amino acid 2-543); His-tag; made in house; host or cells: Sf9 insect cells
Test: ROCK Kinase Assay (SPA, P33 incorporation into peptide substrate)
Assay type: biochemical
Details: 1 nM hROCK1, 1 uM ATP; eleven point dilution range, 50 uM to 0.8 nM or 10 uM to 0.8 nM (Example 98: 10 uM to 0.8 nM)
Protocol: ROCK inhibitor activity was determined using human recombinant ROCK1 kinase domain (amino acid 2-543) expressed in Sf9 cells (see WO9967283). The enzyme was purified using His-tag NTA column and Source15 HPLC chromatography. The assay of Rock-1 activity involved incubation with peptide substrate and ATP^33, the subsequent incorporation of P^33 into the peptide was quantified by Scintillation Proximity Assay (SPA—Amersham Pharmacia).
For IC50 determination, test compounds were typically dissolved at 10 mM in 100% DMSO, with subsequent serial dilution in 100% DMSO. Compounds were typically assayed over an eleven point dilution range with a concentration in the assay of 50 uM to 0.8 nM, in 3-fold dilutions. IC50 values were calculated by bespoke curve fitting software and then converted to pIC50. In some cases, compounds were assayed over an eleven point dilution range with a concentration in the assay of 10 uM to 0.8 nM, in 3-fold dilutions. […]
Assays were performed in opaque, white walled, 384 well plates, in a total assay volume of 20 ul. […] P^33 incorporation was quantified by scintillation counting in a Packard TopCount. When the reaction was terminated by addition of a 10 ul solution, P33 incorporation was quantified by luminescence detection using a Perkin-Elmer Viewlux ultraHTS microplate imager.

T1 sequence (Q13464 2-543): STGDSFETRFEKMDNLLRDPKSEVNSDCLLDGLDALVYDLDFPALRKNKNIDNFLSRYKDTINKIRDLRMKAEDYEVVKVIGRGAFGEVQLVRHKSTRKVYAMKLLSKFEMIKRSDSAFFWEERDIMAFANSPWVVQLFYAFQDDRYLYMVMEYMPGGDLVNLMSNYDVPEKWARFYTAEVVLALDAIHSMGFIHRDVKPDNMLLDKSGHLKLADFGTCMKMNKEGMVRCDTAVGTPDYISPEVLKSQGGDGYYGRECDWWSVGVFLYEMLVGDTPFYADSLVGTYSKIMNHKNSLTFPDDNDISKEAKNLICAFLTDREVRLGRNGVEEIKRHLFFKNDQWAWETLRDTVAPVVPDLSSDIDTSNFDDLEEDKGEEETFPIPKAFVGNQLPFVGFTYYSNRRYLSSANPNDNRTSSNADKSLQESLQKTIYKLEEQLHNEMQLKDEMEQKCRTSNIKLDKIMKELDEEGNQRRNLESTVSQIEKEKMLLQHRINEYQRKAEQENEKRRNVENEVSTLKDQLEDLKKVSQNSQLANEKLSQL

CC1=C(C(=O)Nc2cc3cn[nH]c3cc2F)C(c2ccc(Cl)cc2F)N=C(c2ccnc(Cl)c2)N1C (stereo not shown) [Example 98, 4-(4-chloro-2-fluorophenyl)-2-(2-chloro-4-pyridinyl)-N-(6-fluoro-1H-indazol-5-yl)-1,6-dimethyl-1,4-dihydro-5-pyrimidinecarboxamide]
activity in the ROCK kinase assay: not active
